Results from article PMC3729231 (Bioorganic & medicinal chemistry letters, 2012).

Assays:
APJ = molecular target: T1, APJ (Homo sapiens, UniProt P35414); experiment: cell-based
T1 sequence (P35414 1-380): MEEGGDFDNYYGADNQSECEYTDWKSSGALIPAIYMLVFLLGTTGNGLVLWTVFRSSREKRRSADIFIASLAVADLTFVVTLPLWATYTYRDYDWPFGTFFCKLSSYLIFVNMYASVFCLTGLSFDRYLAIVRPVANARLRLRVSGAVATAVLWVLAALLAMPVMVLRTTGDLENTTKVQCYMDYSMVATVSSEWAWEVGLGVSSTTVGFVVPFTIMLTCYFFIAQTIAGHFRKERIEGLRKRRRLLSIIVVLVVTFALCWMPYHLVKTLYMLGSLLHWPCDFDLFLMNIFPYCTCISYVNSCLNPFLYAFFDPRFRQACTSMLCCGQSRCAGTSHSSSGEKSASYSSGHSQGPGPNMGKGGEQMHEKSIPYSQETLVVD

[1] = aqueous acetonitrile; data not shown
29 other GPCRs = experiment: PDSP GPCR binding assay panel: other GPCRs; conditions: listed as ML221

Cc1ccnc(SCc2cc(=O)c(NC(=O)c3ccc([N+](=O)[O-])cc3)co2)n1 [Entry 67]
IC50 (APJ): 12.8 ± 0.35 µM

Cc1ccnc(SCc2cc(=O)c(OC(=O)c3ccc(Cl)c([N+](=O)[O-])c3)co2)n1 [Entry 29]
hydrolytic stability of the ester bond (in words) [1]: readily hydrolyzed

O=C(Oc1coc(CSc2ncccn2)cc1=O)c1ccc([N+](=O)[O-])cc1 [Entry 6, 4-oxo-6-((pyrimidin-2-ylthio)methyl)-4H-pyran-3-yl 4-nitrobenzoate]
binding activity against other GPCRs (in words) (29 other GPCRs): no significant binding activity
